Paper PMC5684319, “Copper (II) binding of NAD(P)H- flavin oxidoreductase (NfoR) enhances its Cr (VI)-reducing ability” (Scientific Reports, 2017)

Target: T1, NfoR (NAD(P)H-flavin oxidoreductase) (Staphylococcus aureus, UniProt Q2FVA4)
T1 construct: gene SAOUHSC_02829; N-terminal 6xHis tag, pET-28a (pEnfoR), E. coli Rosetta (DE3), HisTrap; dimer by homology model only; residues named: His100, His128, Cys163, Met165
T1 sequence (Q2FVA4 1-223): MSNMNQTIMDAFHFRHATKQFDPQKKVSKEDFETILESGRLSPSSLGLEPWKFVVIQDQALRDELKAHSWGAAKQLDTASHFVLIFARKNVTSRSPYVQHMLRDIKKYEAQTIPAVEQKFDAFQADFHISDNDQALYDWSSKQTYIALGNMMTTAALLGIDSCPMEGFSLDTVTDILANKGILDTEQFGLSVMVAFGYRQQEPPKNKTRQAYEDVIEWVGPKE
Assay: HPLC of flavin released by heating the purified protein
Format: binding
Details: FMN co-purified with the protein; non-covalent; occupancy, not an affinity

With `Cc1cc2nc3c(=O)[nH]c(=O)nc-3n(C[C@H](O)[C@H](O)[C@H](O)COP(=O)(O)O)c2cc1C` [FMN] the “percent of FMN/isolated NfoR” value was 79.98%.
